Values after ≈ are worked out from the molar mass of the structure shown.
Key:
[1] = Thermogravimetric analysis (TGA) moisture / weight loss; type: physicochemical; conditions: for weight loss: TGA
Procedure: TGA data were obtained using a TA Instruments Model 3100 and 5200 Thermal Analysts with a Model 2950 Hi Res TGA module. TGA thermograms were acquired at a heating rate of 5° C. per minute, under nitrogen purge with a flow rate of about 40 mL per minute.

[2] = Dynamic moisture sorption gravimetry (DMSG) (hygroscopicity); type: physicochemical
Procedure: Because moisture-mediated crystallization was not observed during RH levels between 5% and 10%, it was concluded that the solid at 5% RH was crystalline; and because the solid contained less than 0.5% water, it was also determined that it was an anhydrate.
Dynamic moisture sorption gravimetry (DMSG) (hygroscopicity) data were obtained on a VTI Corporation model MB 300 G sorption microbalance using vacuum to control RH. The automated system controlled the RH and temperature to which each sample was exposed, while continuously recording sample weight changes. Sorption and desorption isotherms were performed at 25±0.1° C. with 5±1% RH step intervals from 0-95% RH. Samples of about 15-30 mg were dried under vacuum for up to 3 hours (approximate RH=0-1% RH) before each experiment. The weight loss observed during the drying period was used to estimate how tightly each sample held onto water. After the drying period, sorption isotherms started at 5% RH. A critical weight equilibrium of less than […] weight change over three 5 minutes periods was used to move to the next step. […] Meaning that any water present in the sample was surface water and not lattice water.

[3] = Solid-state stability of crystalline forms versus relative humidity; type: physicochemical; conditions: for RH above which the form converts to a higher hydrate: ambient temperature
[4] = Solubility in 200 proof ethanol by HPLC (saturated solutions, two-day slurry); conditions: slurried two days
Procedure: Solubility of Lestaurtinib Crystalline Form 1 and anhydrous lestaurtinib at 26° C. and 2-8° C. was determined using HPLC. Saturated solutions of the solid-state phase in ethanol (200 poof) were obtained by slurrying a sample in ethanol for two days at 26° C. and at 2-8° C. After slurrying, each solution was filtered through 0.45 μm micron filter and the level of CEP-701 was determined by HPLC.

[5] = Slurry of lestaurtinib forms in 200 proof ethanol for 48 hours, remaining form analyzed by PXRD; conditions: for Form After Mixing With Ethanol For 48 Hours: 200 proof ethanol, PXRD
Procedure: The forms of lestaurtinib remaining were analyzed by PXRD to determine if any crystal form conversion had occurred.

With `C[C@]12O[C@H](C[C@]1(O)CO)n1c3ccccc3c3c4c(c5c6ccccc6n2c5c31)CNC4=O` [Amorphous, Amorphous Lestaurtinib] the weight loss ([1]; up to about 184° C.) was 5.56%.

In the case of `C[C@]12O[C@H](C[C@]1(O)CO)n1c3ccccc3c3c4c(c5c6ccccc6n2c5c31)CNC4=O` [Crystalline lestaurtinib anhydrate, Crystalline Lestaurtinib Anhydrate], the “water content of solid-state phase” value ([2]; DMSG, 25° C., between 0% and 5% RH) is reported as “less than 0.5%” and the “RH above which the form converts to a higher hydrate” value [3] is reported as “above 5 % RH”.

In the case of `C[C@]12O[C@H](C[C@]1(O)CO)n1c3ccccc3c3c4c(c5c6ccccc6n2c5c31)CNC4=O.O` [Crystalline lestaurtinib monohydrate, crystalline lestaurtinib monohydrate], the “RH above which the form converts to a higher hydrate” value [3] is reported as “above 40 % RH” and the “factor by which ability to absorb water is reduced when ground” value ([3]; ground with mortar and pestle vs unground) is reported as “about 6”.

For `CC12OC(CC1(O)CO)n1c3ccccc3c3c4c(c5c6ccccc6n2c5c31)C(=O)NC4` (stereo not shown) [Form I, Lestaurtinib Crystalline Form 1], the Solubility ([4]; 2-8° C.) was 2380 µg/mL (≈ 5.42 mM), the Solubility ([4]; 26° C.) was 2600 µg/mL (≈ 5.92 mM) and the “Form After Mixing With Ethanol For 48 Hours” value ([5]; 2-8° C.) was 1. For the same molecule, the “Form After Mixing With Ethanol For 48 Hours” value ([5]; 26° C.) was 1, the “relative stability of crystalline form” value ([5]; ambient temperature and 2-8° C.) was “most stable crystalline form of lestaurtinib” and the hygroscopicity [2] was “non-hygroscopic”. For the same molecule, the nominal moisture uptake ([2]; DMSG, 25° C.) was “about 0.2 % (w/w)”, the moisture uptake ([2]; DMSG, 25° C., 0-95% RH) was “up to 0.4%” and the “equilibrium moisture content (EMC)” value ([2]; DMSG, at moisture uptake up to about 0.4%) was “about 0.1 mole water per mole drug”. The “equilibrium moisture content (EMC)” value ([2]; DMSG, at nominal moisture uptake of about 0.2%) was “about 0.05 mole water per mole drug”, the weight loss ([1]; up to about 100° C.) was 0.04% and the moisture ([1]; determined by TGA) was “less than 0.05%”. For the same molecule, the solid state conversion ([3]; regardless of temperature or relative humidity) was “not known to undergo solid state conversion”.

For `CC#N.CC12OC(CC1(O)CO)n1c3ccccc3c3c4c(c5c6ccccc6n2c5c31)C(=O)NC4.CC12OC(CC1(O)CO)n1c3ccccc3c3c4c(c5c6ccccc6n2c5c31)C(=O)NC4.O` (stereo not shown) [hemi: hydrate/acetonitrileate, Crystalline Lestaurtinib Hemihydrate Hemiacetonitrileate], the “Form After Mixing With Ethanol For 48 Hours” value ([5]; 2-8° C.) was 1 and the “Form After Mixing With Ethanol For 48 Hours” value ([5]; 26° C.) was 1.

In the case of `C[C@]12O[C@H](C[C@]1(O)CO)n1c3ccccc3c3c4c(c5c6ccccc6n2c5c31)CNC4=O` [hydrated, Crystalline Hydrated Lestaurtinib], the “Form After Mixing With Ethanol For 48 Hours” value ([5]; 2-8° C.) is reported as 1 and the “Form After Mixing With Ethanol For 48 Hours” value ([5]; 26° C.) is reported as 1.
